Experimental data: patent US7910551B2, “Gene differentially expressed in breast and bladder cancer and encoded polypeptides” (University of Rochester, priority 2000, dated 2011)

Tested on: B/C.N cells
Assay: CML assay: peptide sensitization of B/C.N cells to lysis by tumor-specific CTL
Format: cell-based, mouse
Details: for ability to sensitize B/C.N cells to lysis by tumor-specific CTL: 51Cr release, 4 hours

Row | Substance | ability to sensitize B/C.N cells to lysis by tumor-specific CTL | peptide concentration sufficient to sensitize targets to lysis by CTL (B/C.N targets) [nM] | peptide concentration that did not sensitize targets to lysis by CTL (B/C.N targets) [mM]
1 | L345-54 (I54): ribosomal protein L3 peptide, amino acids 45-54 with Ile 54 (AFLGYKAGMI) | did not |  | 
2 | L348-56 (I54): ribosomal protein L3 peptide, amino acids 48-56 with Ile 54; target epitope of tumor-specific CTL (GYKAGMIHI) | sensitized B/C.N to lysis | 10 | 
3 | L348-56 (T54): wild type ribosomal protein L3 peptide 48-56 with Thr 54 (GYKAGMTHI) [reference compound] | did not |  | > 100
